# In patent US12233077B2, “Therapeutic treatment of breast cancer based on c-MAF status” (INBIOMOTION S.L., priority 2017, dated 2025):
# How the values were obtained:
# [1] = tested on: patients with invasive stage II or III breast cancer (AZURE trial); assay: AZURE trial, effect of MAF amplification on treatment outcomes with adjuvant zoledronic acid (Example 3); format: in vivo, human
# Description: 3,360 patients from 174 centers worldwide were recruited to the AZURE trial between Sep. 4, 2003, and Feb. 16, 2006. Eligible patients had histologically confirmed invasive stage II or III breast cancer of any subtype, with either pathologically involved axillary lymph node metastasis or a T3 or T4 primary tumor treated with curative intent and complete resection of the primary tumor (or planned resection if patients were being treated with neoadjuvant chemotherapy). Other inclusion criteria were age 18 years or older, Karnofsky performance status score 80 or more, and not being pregnant or breastfeeding. Patients were excluded if they had clinical or imaging evidence of distant metastases, current or recent (<1 year) use of bisphosphonates, or pre-existing bone disease likely to require bone-targeted treatment. All patients gave written informed consent. In the UK, patients also provided voluntary specific consent for use of biological materials (primary tumor and blood samples). Before randomization, patients underwent hematological, renal, hepatic function, and staging imaging tests according to institutional protocols. Those confirmed to be eligible were randomly assigned (1:1) to standard adjuvant systemic treatment alone or with zoledronic acid from a central computer-generated schedule held at the Clinical Trials Research Unit, University of Leeds, Leeds, UK. A minimization process that took into account the number of involved axillary lymph nodes, clinical tumor stage, estrogen receptor status, type and timing of systemic therapy, menopausal status, statin use, and treating center was used.
# Patients received standard systemic therapy with (neo-) adjuvant chemotherapy, endocrine therapy, or both, alone (control group) or with 4 mg zoledronic acid given intravenously every 3-4 weeks for the first six doses, every 3 months for eight doses, and every 6 months for five doses to complete 5 years of treatment (zoledronic acid group). Oral calcium and vitamin D supplements were recommended for all patients in the first 6 months of treatment, and continued thereafter at the discretion of the treating physician. Adjuvant systemic treatments and locoregional radiotherapy were used in accordance with the standard protocols of each participating institution.
# The follow-up schedule was similar in both study groups, and included clinical assessments, monitoring of adverse events, and hematological, renal, and hepatic function tests. Routine follow-up imaging was not mandated, but investigations were done for clinically suspected recurrence if deemed appropriate by the treating physician. Recurrence was defined by the date on which it was first suspected, to reduce the risk of ascertainment bias. 91% of recurrences were independently validated by either on-site or telephone based monitoring. After treatment with zoledronic acid was completed, patients were followed up annually for disease and safety endpoints.
# 5 μm thick slices were cut from each TMA block and oriented to match the TMA map to allow identification of each tissue core. The slices were mounted onto Superfrost plus glass slides (Thermo Fisher Scientific, Waltham, MA, USA) and stained with hematoxylin and eosin to confirm the presence of assessable tumor. MAF amplification was assessed with the validated MAFTEST fluorescence in situ hybridization (FISH) with the MAF/D16Z3 probe (Inbiomotion, Barcelona, Spain). A central laboratory (Targos Molecular Pathology, Kassel, Germany) validated the analytical and diagnostic performance of the assay, established acceptance criteria, included appropriate quality controls for each assay, and performed the analyses masked to treatment assignment. Briefly, TMA sections were rehydrated in ethanol series, washed with water, and pretreated at 98° C. for 15 min. Samples were digested with pepsin in a Poseidon Tissue Digestion Kit (Kreatech, Amsterdam, Netherlands) for 30 min, dehydrated in ethanol series, and dried. […]
# [2] = tested on: breast cancer patients (AZURE trial); assay: AZURE trial, zoledronic acid treatment effect according to MAF FISH stratification (Example 2); format: in vivo, human; details: for HR, risk of bone metastasis (anytime), zoledronic acid treatment / HR, bone metastatic event (anytime), zoledronic acid treatment: cutoff 2.5
# Description: The MAF FISH assay was produced by Kreatech for Inbiomotion based on Kreatech proprietary FISH technology. The probe set contains two probes: a MAF 16q23 probe plus a D16Z3 probe as control of chromosome 16 centromeric region. The assay was validated using a 16q23/D16Z3 probe (Inbiomotion) and Poseidon Tissue Digestion Kit from Kreatech. The scoring criteria were defined in a fact sheet and as follows: two FISH evaluable results per patient, and the highest value was selected. The scoring algorithm was as follows: 20 cells counted for target and centromere amplification, if the gene count is >2 and ≤3, then 50 cells were counted.
# An overview of the AZURE clinical trial (Coleman et al N Eng J Med 2011; 365: 1396-1405 and AZURE Current Controlled Trials number, ISRCTN79831382 and ClinicalTrials.gov identifier NCT00072020) study design, whose patients were used to validate MAF, is provided in FIG. 2. MAF was validated in a retrospective analysis of the AZURE trial using patient tumor sample prospectively collected under regulatory compliant conditions. Out of the 3,360 patients recruited, 1,769 donated tumor tissue (52.4%). There were 13 TMAs (tissue micro array) (150 patient samples each) (1,769 patients). There were 4 replicas of each TMA using different tissue cores (6,326 (4× patient)). One TMA had only 1 replica and two TMAs had three replicas. Based on the H&E analysis (hematoxylin and eosin) (FIG. 3) (6,326): 3,978 cores were evaluable (63%) and 2,348 were nonevaluable.
# For the FISH assay, there were 2,067 FISH evaluable cores (56%). […] 567 patients were nonevaluable by FISH in any of the 4 replicas (32%).
# With regard to molecular variables, for FISH analysis: MAF copy number: numerical and categorical (+/−cut-off>=2.5) variable; % of nucleic MAF amplified (MAF CN>2):numberical+categorical (cut-off TBD). For the IHC analysis: IHC H-Score: numerical+categorical (cut-off>=200), IHC OD: numerical+categorical (cut-off tBD). The following clinical variables were analyzed: disease-free survival (DFS), invasive disease-free survival (IDFS), overall survival (OS), first recurrence in bone, bone recurrence at any time, time to first DFS event in bone, time to first DFS event not in bone, response to zoledronic acid treatment.
# In analyzing the MAF FISH prognostic value, the patients from the control and treatment arms were pooled for the initial analysis. Optimized cut-offs for each variable to be analyzed were used when indicated. Death as a competing event was used in time to bone metastasis, anytime. The following clinical variables were analyzed: time to bone metastasis (anytime), time to bone metastasis (as first event), IDFS (including ipsilateral invasive breast tumor recurrence, regional invasive breast cancer recurrence, metastatic disease-breast cancer, death attributable to any cause, including breast cancer, contralateral invasive breast cancer, second primary non-breast invasive cancer), and overall survival.
# The control and zoledronic acid treatment arms from the AZURE study described in Example 1 were evaluated to determine the effect of zoledronic acid treatment on MAF-stratified patients.
# [3] = zoledronic acid group (420 patients), median follow-up 84·6 months
structure (smiles),measurement,setting,value
O=P(O)(O)C(O)(Cn1ccnc1)P(=O)(O)O [zoledronic acid],effect on extraskeletal recurrence,"[1]; MAF-negative tumors, nonpostmenopausal at start of treatment",No effect
same,patients who died,"[1]; MAF-negative tumors, zoledronic acid group (321 patients)",18%
same,"number of events, invasive-disease-free survival","[1]; MAF-negative, non-postmenopausal zoledronic acid group (216 patients)",216 (61)
same,"number of events, invasive-disease-free survival","[1]; MAF-negative, postmenopausal zoledronic acid group (105 patients)",105 (29)
same,patients who died,"[1]; MAF-positive tumors, non-postmenopausal at start of treatment, zoledronic acid group (66 patients)",36%
same,patients who died,"[1]; MAF-positive tumors, postmenopausal, zoledronic acid group (33 patients)",30%
same,patients who died,"[1]; MAF-positive tumors, zoledronic acid group (99 patients)",34%
same,"number of events, invasive-disease-free survival","[1]; MAF-positive, non-postmenopausal zoledronic acid group (66 patients)",66 (33)
same,"number of events, invasive-disease-free survival","[1]; MAF-positive, postmenopausal zoledronic acid group (33 patients)",33 (12)
same,patients with an extraskeletal invasive-disease-free survival event,[1]; zoledronic acid group,98
same,patients who had died,[1]; [3],91
same,patients with a first event in bone,[1]; [3],21
same,patients with an invasive-disease-free survival event,[1]; [3],135
same,"number of events, invasive-disease-free survival","[1]; zoledronic acid group, <50 years, MAF-negative (142 patients)",41
same,"number of events, invasive-disease-free survival","[1]; zoledronic acid group, <50 years, MAF-positive (44 patients)",23
same,"number of events, invasive-disease-free survival","[1]; zoledronic acid group, ≥50 years, MAF-negative (179 patients)",49
same,"number of events, invasive-disease-free survival","[1]; zoledronic acid group, ≥50 years, MAF-positive (55 patients)",22
same,"HR, risk of bone metastasis (anytime), zoledronic acid treatment","[2]; MAF FISH not positive patients, death as competing event, p=0.03",0.65
same,"HR, overall survival outcome, zoledronic acid treatment","[2]; MAF negative post menopausal patients, 95% CI 0.31-1.01",0.56
same,"HR, DFS outcome, zoledronic acid treatment","[2]; MAF negative post menopausal patients, 95% CI 0.33-0.95",0.56
same,"HR, bone metastatic event (anytime), zoledronic acid treatment","[2]; MAF non-positive non-post-menopausal patients, p=0.08",0.66
same,"HR, bone metastatic event (anytime), zoledronic acid treatment","[2]; MAF non-positive postmenopausal patients, limited number of events",0.63
same,"HR, bone metastatic event (anytime), zoledronic acid treatment","[2]; MAF positive non-post-menopausal patients, p=0.045",2.44
same,"HR, risk of bone metastasis (anytime), zoledronic acid treatment","[2]; MAF positive patients, death as competing event, non-significant, p=0.22",1.54
same,"HR, bone metastatic event (anytime), zoledronic acid treatment","[2]; MAF positive postmenopausal patients, p=0.26, limited number of events",0.46
same,"HR, risk of bone metastasis at any time","[2]; zoledronic acid arm, MAF FISH not positive (<2.3) compared to MAF FISH positive, death as competing event, p=0.01",0.52
same,"HR, time to recurrence (invasive disease)","[2]; zoledronic acid treatment arm, by MAF FISH status (positive >=2.2), multivariate analysis, p<0.001",0.52
